Drawing on a melting point compilation (Tetko et al.; mined from patent text by program, amines drawn as free bases though some values may be those of a salt), this text covers melting point for 88 compounds.

Each structure is given as a SMILES string. Some results are limits rather than exact numbers.

Compound `COc1ccc(C(O)(c2ccccc2)c2ccc(OC)cc2)cc1` yielded a melting point of 122 to 124 °C.

The compound `CC(C)n1c(=O)nc(N(C)C)[nH]c1=O` returned a melting point of 213 to 214 °C.

As for `Cc1nccn1-c1cccc(C2=Nc3cc(O)c(-c4ccc(F)cc4)cc3NC(=O)C2)c1`, the melting point was 260 °C.

As to `CC1=NC2CN=C(c3ccccc3F)c3cc(Cl)ccc3C2C(=O)N1` (stereo not drawn), the melting point was in the range of 150 to 165 °C.

`C=C(C)CN(CC)c1nc(C)[nH]c2cc(-c3ccccc3)nc1-2`: the melting point lay in the range of 148 to 150 °C.

For the compound `O=C(NCc1cccs1)C1CCCCC1`, the melting point stood at 105 °C.

On to `Cc1ccnc(NCCCCC(=O)O)c1`, for which the melting point was 138 to 140 °C.

The compound `N#Cc1c(N2CCN(C(=O)c3cccs3)CC2)c2cscc2[nH]c1=O` registered a melting point of 263 °C.

In turn, `NC(=O)c1cn2c(nc1=O)CCC2` displayed a melting point of 277 to 278 °C.

For the compound `CCCc1nc2c(N)nc3ccc(-c4ccc(CN)cc4)cc3c2s1`, the melting point fell in the range of 225 to 226 °C.

The compound `Cc1ccc(S(=O)(=O)N2CCC[C@H]2C(=O)N[C@@H](Cc2ccc(NC(=O)C3CCNCC3)cc2)C(=O)O)cc1` yielded a melting point of 125 to 128 °C.

As for `Cc1cc(-c2ccc(N(c3ccccc3)c3ccccc3)c(C)c2)ccc1N(c1ccccc1)c1ccccc1`, the melting point lay within 175 to 178 °C.

On to `NS(=O)(=O)c1ccc(-n2nc(CO)cc2-c2ccc(Cl)cc2)cc1`, for which the melting point lay within 192 to 194 °C.

Consider `CC(C)(C)OC(=O)NC(=Cc1ncoc1C(C)(C)C)C(=O)OC(C)(C)C`, for which the melting point lay within 170 to 172 °C.

The compound `CC(C)c1nn(-c2ncccn2)c(-c2ccc(F)cc2)c1Br` showed a melting point of 130 to 133 °C.

Compound `CS(=O)c1c2ccccc2c(C=O)c2ccccc12` (stereo not drawn) displayed a melting point of 182 to 184 °C.

For `O=C(O)Cc1cc([N+](=O)[O-])ccc1Oc1ccc(F)cc1`, the melting point is 129 to 130 °C.

Regarding `CCOc1ccc2nc(COc3ccc(CC4SC(=O)NC4=O)cc3)n(C)c2n1` (stereo not drawn), the melting point is 245 to 246 °C.

The compound `CN1CCc2ccc(O)cc2[C@@H](c2ccccc2)C1` returned a melting point of 90 to 92 °C.

As for `Cc1nc(N2CCNCC2)nc(N2CCSCC2)c1C#N`, the melting point lay in the range of 146 to 148 °C.

In turn, `COc1ccc2c(c1)c(Cc1cc(=O)n(-c3cccc(Br)c3)[nH]1)c(C)n2C(=O)c1ccc(Cl)cc1` gave a melting point of 164 to 167 °C.

As to `COCCOc1cc2ncnc(Nc3cc(OC)c(Br)cc3OC)c2cc1OC`, the melting point is 217 to 221 °C.

As for `CC#CCNC(=NC#N)SC`, the melting point was 180 to 183 °C.

On to `CNC(=N[N+](=O)[O-])N(Cc1ccc(Cl)nc1)C(C)=O`, for which the melting point is 124 to 125 °C.

`CCOC(=O)C1=C(COCC#CC(O)c2ccccc2)NC(C)=C(C(=O)OC)C1c1cccc(Cl)c1Cl` (stereo not drawn) returned a melting point of 160 to 164 °C.

`CC1(C)CCc2c(N3CCOCC3)nc3sc4c(NCCCN5CCCC5=O)ncnc4c3c21` returned a melting point of 142 to 143 °C.

Take `Cc1nc(N2CCc3ccccc3CC2)c(C#N)c(=O)n1NC(C)C`: the melting point is 142 to 146 °C.

For `CC(C)Oc1cccc2oc(C(=O)O)cc12`, the melting point lay in the range of 148 to 150 °C.

For `CCOC(=O)c1c(N2CCN(C(=O)c3cccs3)CC2)c2c(C)csc2n(Cc2ccccc2)c1=O`, the melting point is 195 °C.

The compound `CCOC(=O)c1ccc(Sc2cc3c(cc2C(C)C)C(C)(C)CCC3(C)C)cc1` gave a melting point of 99 to 100 °C.

For the compound `CCOC1=NS(=O)(=O)c2cc(NC=O)ccc21`, the melting point is 188 to 194 °C.

`CCOP(OCC)c1ccccc1P(c1cc(C(C)(C)C)c(OC)c(C(C)(C)C)c1)c1cc(C(C)(C)C)c(OC)c(C(C)(C)C)c1` yielded a melting point of 104 to 105 °C.

Compound `CC(=O)OC1CSC(Oc2cnccc2Br)C(OC(C)=O)C1OC(C)=O` (stereo not drawn) showed a melting point of 153 °C.

Consider `CC(C)Nn1c(CO)nc2c(N)nc3ccccc3c21`, for which the melting point lay within 228 to 229 °C.

In the case of `COc1ccc(C(=CC(=O)N2CCOCC2)c2ccc(O)cc2)cc1OC`, the melting point lay in the range of 105 to 120 °C.

`Cc1oc(-c2ccccc2)nc1CCCc1ccc(CC(C(=O)O)c2cccc(-c3ccccc3)c2)cc1` (stereo not drawn) yielded a melting point of 75 to 80 °C.

In turn, `N#Cc1ccc(-c2cnc3cnc(-c4ccc(O)cc4)nc3c2)cc1` displayed a melting point of 313 to 314 °C.

In the case of `Cc1c(C2=CCC(Cc3ccccc3)(N(C)C)CC2)[nH]c2ccc(C#N)cc12` (stereo not drawn), the melting point fell in the range of 120 to 123 °C.

In turn, `CCOC(=O)C1=C(C)NC(C(OCC)OCC)=C(C(=O)OCC)C1c1ccccc1C(F)(F)F` (stereo not drawn) registered a melting point of 82 to 83 °C.

In turn, `CCOC(=O)CC(=O)c1cc(Oc2ccccc2)c(NS(C)(=O)=O)cc1OCc1ccccc1` yielded a melting point of 85 to 90 °C.

`N#Cc1cnn(-c2ccccn2)c1N` showed a melting point of 197 to 200 °C.

`Cc1cc(C#N)cc(Oc2nc(Cl)nc(Cl)c2C(C)C)c1` showed a melting point of 143 to 144 °C.

For the compound `CCc1csc(-c2ccc3c(c2)C=C(C(=O)Nc2ccc(CN(C)C4CCOCC4)cc2)CCN3C)c1`, the melting point was in the range of 139 to 141 °C.

As to `CCOCn1c(C(F)(F)F)nc2cc(Cl)c(Cl)cc21`, the melting point lay within 89 to 92 °C.

With `CCOP(=O)(OCC)C(CCC(C(N)=O)P(=O)(OCC)OCC)C(N)=O` (stereo not drawn), the melting point was in the range of 232 to 234 °C.

Regarding `FC(F)(F)c1cc(I)cc(OCc2ccc3ccccc3c2)c1`, the melting point was in the range of 65 to 66 °C.

`CC(=O)NC[C@H]1CN(c2ccc(N3CCC4(CC3)COCO4)cc2)C(=O)O1` registered a melting point of 134 to 138 °C.

The compound `COc1cc(CC(=O)N2CCN(c3nsc4ccccc34)CC2)c([N+](=O)[O-])cc1OC` gave a melting point of 170 °C.

For the compound `N#CCCC1CN(C(=O)OCc2ccccc2)CCO1` (stereo not drawn), the melting point fell in the range of 59 to 60 °C.

For `CCCCc1cn2ccccc2c1S(=O)(=O)c1ccc(OS(=O)(=O)c2ccc(C)cc2)cc1`, the melting point came to 145 °C.

In turn, `N#CC1(NCC2CCCCC2)CCN(Cc2ccccc2)CC1` displayed a melting point of 128 to 130 °C.

Regarding `Nc1nc(NCCSSCCNc2n[nH]c(N)n2)n[nH]1`, the melting point fell in the range of 231 to 233 °C.

Compound `COC(=O)C(C)Oc1ccc(Oc2cnc3ccccc3n2)cc1` (stereo not drawn) returned a melting point of 110 to 115 °C.

`Cc1ccc(C2c3c(C)c(N4CCN(c5cc(C)cc(C)c5)CC4)c(C)c(C)c3OC2(C)C)cc1` (stereo not drawn) had a melting point of 147 to 149 °C.

As for `CC(C)OC(=O)NC12CC1CN(Cc1ccccc1)C2` (stereo not drawn), the melting point stood at 88 °C.

`CCOC(=O)C1=C(COCc2nc(C(=O)OCC)cs2)NC(C)=C(C(=O)OC)C1c1ccccc1Cl` (stereo not drawn) displayed a melting point of 111 to 113 °C.

Compound `O=C(Cl)N1Cc2ccccc2Oc2ccc(Cl)cc21` returned a melting point of 100 to 102 °C.

As to `CNC(=O)C(O)C(Oc1ccccc1[N+](=O)[O-])c1ccccc1` (stereo not drawn), the melting point lay in the range of 162 to 163 °C.

In turn, `O=C1CCC(c2ccc(-c3ccc(Cl)cc3)cc2)=NO1` yielded a melting point of 190 to 192 °C.

The compound `Cc1ccsc1C(=O)c1sc(Nc2ccc(-n3ccnc3)cc2)nc1N` yielded a melting point above 300 °C.

`CC(C)(C)C(=O)OC1CCCCC1=O` (stereo not drawn) showed a melting point of 35 to 36 °C.

On to `CC(O)CN1C(=O)N(CN2C(=O)N(CC(C)O)C(=O)C2(C)C)C(C)(C)C1=O` (stereo not drawn), for which the melting point is 131 to 133 °C.

With `O=C(O)C1CN(c2ccc(-c3noc(CN4C(=O)c5ccccc5C4=O)n3)cc2)C(=O)O1` (stereo not drawn), the melting point lay in the range of 130 to 135 °C.

Regarding `O=C(Cn1c(=O)n(-c2ccc3c(c2)OCO3)c2ncccc21)N1CCOCC1`, the melting point is 212 to 213 °C.

The compound `COC(=O)c1ccccc1S(=O)(=O)NC(=Nc1nc(C)cc(OC)n1)SC` yielded a melting point of 143 to 144 °C.

With `CCCCCC(=O)Nc1ccc2scc(Cc3ccc(C(=O)O)cc3OC)c2c1`, the melting point lay in the range of 234 to 235 °C.

As for `COC(N)=CC(=O)C(C)(C)C`, the melting point was 79 to 79.5 °C.

On to `CCOc1ccc2c(c1)C(C)=CC(C)(C)N2C(=O)Cl`, for which the melting point was 75.5 to 76.5 °C.

As to `O=C(O)C=CCCCCCc1cccc2cncn12`, the melting point was in the range of 110 to 111 °C.

In the case of `Cc1nc(-c2ccc(F)cc2)sc1C(=O)NCc1ccc(OC(C)(C)C(=O)O)cc1`, the melting point was 159 °C.

Take `Cc1cc(CCC(=O)c2ccc(-c3ccc(C(F)(F)F)cc3)s2)ccc1OC(C)(C)C(=O)O`: the melting point lay in the range of 130 to 131 °C.

`CCC(CC)NC(=O)NC/C=C\COc1cc(CN2CCCCC2)ccn1`: the melting point lay in the range of 82 to 84 °C.

In turn, `COc1ccc(C2Sc3c(Cl)cccc3N(CCN(C)C)C(=O)C2O)cc1` (stereo not drawn) displayed a melting point of 143 to 144 °C.

The compound `CN1CCC(c2n[nH]c3ccc(NC(=O)c4ccc(F)cc4)cc23)CC1` returned a melting point of 151 to 153 °C.

On to `Fc1ccc(-n2cc(C3CCN(CCN4CCNC4=S)CC3)c3ccc(Cl)cc32)cc1`, for which the melting point lay in the range of 184 to 186 °C.

In turn, `O=C1C2=C(CCCC2)C(=O)N1c1cc(O)c(Cl)cc1Cl` yielded a melting point of 155 to 157 °C.

Regarding `CCC(CC)Oc1nc(C)nc(Oc2c(C)cc(C)cc2C)c1C`, the melting point lay within 93.5 to 95.5 °C.

Compound `CCOC(=O)c1cn(NC=O)c2cc(Cl)c(F)cc2c1=O` showed a melting point of 263 to 264 °C.

In the case of `CC1(Oc2ccc(CC(=O)c3ccc4c(c3)CCC4)cc2)CCCC1C(=O)O` (stereo not drawn), the melting point lay in the range of 191 to 193 °C.

As to `CN(C)C(=O)c1ccc([N+](=O)[O-])cc1Cl`, the melting point was 116 to 117 °C.

As for `O=C(CCl)Nc1cccc(C(=O)Cl)c1`, the melting point was 106 to 108 °C.

Compound `COc1cc(C=O)c(OC)cc1Cl` displayed a melting point of 109 °C.

For `NC(=O)COc1cccc(CCNS(=O)(=O)c2cccc(C(F)(F)F)c2)c1`, the melting point stood at 118 °C.

As to `CCOc1ccc(C2=NN(CC3CC3)C(=O)[C@H]3CC=CC[C@@H]23)cc1OCC` (relative stereo), the melting point was in the range of 142 to 145 °C.

For `O=C(NC1CC1)c1nccnc1Oc1cccc(C(F)(F)F)c1`, the melting point was 74 to 77 °C.

`O=S(c1ncccn1)c1cccc2cccnc12` (stereo not drawn): the melting point fell in the range of 152 to 155 °C.

Compound `CC(=O)N1CCC(n2cnc3ccc(-c4nnc(C)o4)cc32)CC1` gave a melting point of 228 to 229 °C.

Regarding `Cc1c(C)c2c(c(C)c1NCc1ccc(F)cc1)C(c1ccc(F)cc1)C(C)(C)O2` (stereo not drawn), the melting point was 118 to 120 °C.

For orientation: melting point means the temperature, or range, at which the solid turns liquid.
